These results are taken from patent US20070208166A1, “Tao Kinase Modulators And Method Of Use” (Exelixis, Inc., priority 2003, published 2007).

The term IC50 denotes the point on the concentration scale where inhibition reaches its midpoint.

What all share (assay type): biochemical
The target in test [1] is T1, KIAA 1361 (baculovirus expressed human KIAA 1361 kinase domain 2-322) (Homo sapiens, UniProt Q7L7X3).
T1 construct: human KIAA 1361 kinase domain 2-322; made in house
T1 sequence (Q7L7X3 2-322): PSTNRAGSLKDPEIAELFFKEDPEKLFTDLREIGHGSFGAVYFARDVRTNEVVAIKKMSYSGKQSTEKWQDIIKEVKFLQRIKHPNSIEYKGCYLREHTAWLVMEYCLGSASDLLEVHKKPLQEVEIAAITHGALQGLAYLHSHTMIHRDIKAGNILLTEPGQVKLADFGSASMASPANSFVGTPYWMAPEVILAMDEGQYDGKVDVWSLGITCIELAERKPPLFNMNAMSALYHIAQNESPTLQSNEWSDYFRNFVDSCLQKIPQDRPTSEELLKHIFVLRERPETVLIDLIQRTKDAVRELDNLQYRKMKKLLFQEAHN
Kind of test: KIAA 1361 Luciferase-Coupled Chemiluminescent Kinase assay (LCCA). The note with it: 2 μM ATP, 10 μM MBP, 12 nM KIAA 1361, 2 hours; read-out: KIAA1361 inhibition IC50. An outline of the steps: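 KIAA 1361 kinase domain 2-322 (baculovirus, 12 nM) with 2 μM ATP and 10 μM MBP in Tris pH 7.5, MgCl2, MnCl2; 2 h, ambient. Remaining ATP read by luciferase chemiluminescence; 10 concentrations, IC50 by four-parameter fit.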

The target in test [2] is T2, JIK (Homo sapiens, UniProt Q9H2K8).
T2 construct: 6 nM JIK (baculovirus expressed human KIAA 1361 kinase domain2-318); made in house
T2 sequence (Q9H2K8 2-318): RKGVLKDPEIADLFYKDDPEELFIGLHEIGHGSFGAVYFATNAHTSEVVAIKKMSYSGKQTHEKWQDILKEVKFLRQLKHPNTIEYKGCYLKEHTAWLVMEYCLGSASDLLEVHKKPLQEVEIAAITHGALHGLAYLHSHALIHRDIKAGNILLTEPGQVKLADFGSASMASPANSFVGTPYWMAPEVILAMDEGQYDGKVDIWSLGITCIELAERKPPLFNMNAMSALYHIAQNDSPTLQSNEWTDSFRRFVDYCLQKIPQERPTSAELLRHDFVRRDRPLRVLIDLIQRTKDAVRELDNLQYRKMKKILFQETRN
Kind of test: JIK Luciferase-Coupled Chemiluminescent Kinase assay (LCCA). The conditions noted are these: 2 μM ATP, 10 μM MBP, 6 nM JIK, 2 hours; read-out: JIK inhibition IC50. An outline of the steps: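 Baculovirus-expressed human KIAA 1361 kinase domain 2-318 at 6 nM, with 10 μM MBP and 2 μM ATP in Tris pH 7.5 with Mg/Mn, ran 2 h at ambient temperature. Remaining ATP was read by luciferase chemiluminescence. IC50 comes from a 10-concentration four-parameter fit.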

The target in test [3] is T3, TAO (Homo sapiens, UniProt Q9UL54).
T3 sequence (Q9UL54 1-1235): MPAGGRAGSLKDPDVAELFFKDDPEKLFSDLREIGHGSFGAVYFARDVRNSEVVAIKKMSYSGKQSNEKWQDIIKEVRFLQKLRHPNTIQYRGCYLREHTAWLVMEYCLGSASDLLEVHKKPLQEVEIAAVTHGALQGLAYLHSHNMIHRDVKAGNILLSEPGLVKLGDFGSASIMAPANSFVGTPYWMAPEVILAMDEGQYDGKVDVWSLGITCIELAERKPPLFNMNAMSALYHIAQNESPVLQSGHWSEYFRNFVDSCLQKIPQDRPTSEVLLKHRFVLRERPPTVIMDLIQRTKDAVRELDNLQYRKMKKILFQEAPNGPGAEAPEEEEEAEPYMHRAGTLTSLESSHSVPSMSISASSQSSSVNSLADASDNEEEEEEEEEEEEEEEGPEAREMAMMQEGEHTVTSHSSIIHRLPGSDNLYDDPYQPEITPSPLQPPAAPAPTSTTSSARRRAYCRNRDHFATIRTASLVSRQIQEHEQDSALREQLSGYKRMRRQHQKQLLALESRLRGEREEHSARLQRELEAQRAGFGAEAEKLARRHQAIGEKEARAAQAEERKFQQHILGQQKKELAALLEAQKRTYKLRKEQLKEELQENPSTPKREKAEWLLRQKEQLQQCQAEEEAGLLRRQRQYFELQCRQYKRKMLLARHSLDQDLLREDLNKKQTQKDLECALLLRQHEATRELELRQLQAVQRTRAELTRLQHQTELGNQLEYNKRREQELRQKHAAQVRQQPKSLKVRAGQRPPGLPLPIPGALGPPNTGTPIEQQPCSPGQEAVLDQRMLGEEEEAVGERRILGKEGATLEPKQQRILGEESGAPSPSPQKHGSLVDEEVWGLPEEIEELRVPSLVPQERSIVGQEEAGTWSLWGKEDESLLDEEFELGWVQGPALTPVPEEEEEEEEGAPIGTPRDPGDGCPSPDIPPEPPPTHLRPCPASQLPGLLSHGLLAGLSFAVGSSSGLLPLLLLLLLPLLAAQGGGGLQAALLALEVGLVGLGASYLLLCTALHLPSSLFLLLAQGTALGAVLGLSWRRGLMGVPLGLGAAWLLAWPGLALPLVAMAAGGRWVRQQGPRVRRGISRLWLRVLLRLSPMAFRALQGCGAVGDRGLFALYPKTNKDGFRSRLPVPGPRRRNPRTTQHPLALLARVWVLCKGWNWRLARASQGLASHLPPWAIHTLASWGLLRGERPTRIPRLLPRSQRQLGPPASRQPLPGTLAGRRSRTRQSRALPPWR
Kind of test: TAO Luciferase-Coupled Chemiluminescent Kinase assay (LCCA). The conditions noted are these: 2 μM ATP, 10 μM MBP, 12 nM TAO, 2 hours; read-out: TAO inhibition IC50.

In the case of `COc1ccc2nc(NC(=O)COC(=O)CC(NC(=O)c3ccccc3)c3ccccc3)sc2c1` (stereo not drawn) [Entry 37, 2-{[6-(methyloxy)-1,3-benzothiazol-2-yl]amino}-2-oxoethyl 3-phenyl-3-[(phenylcarbonyl)amino]propanoate], the IC50 in test [1], in test [2] and in test [3] was below 50 nM in each case.

Consider `O=C(COc1ccc(-c2nccc(-c3ccccn3)n2)cc1)NCc1ccc(Cl)c(Cl)c1` [Entry 38, N-[(3,4-dichlorophenyl)methyl]-2-{[4-(4-pyridin-2-ylpyrimidin-2-yl)phenyl]oxy]acetamide], for which the figures for the IC50 in test [1], in test [2] and in test [3] were below 50 nM, below 50 nM and 50 to 500 nM, respectively.

`CCOCCCn1c(=S)[nH]c2cc(C(=O)NCC3COc4ccccc4O3)ccc2c1=O` (stereo not drawn) [Entry 39, N-(2,3-dihydro-1,4-benzodioxin-2-ylmethyl)-3-[3-(ethyloxy)propyl]-4-oxo-2-thioxo-1,2,3,4-tetrahydroquinazoline-7-carboxamide]: the IC50 in test [1], in test [2] and in test [3] was 50 to 500 nM throughout.

With `COc1ccc2nc(NC(=O)CNC(=O)Cn3cnc4sc(C)c(C)c4c3=O)sc2c1` [Entry 40, N˜2˜-[(5,6-dimethyl-4-oxothieno[2,3-d]pyrimidin-3(4H)-yl)acetyl]-N-[6-(methyloxy)-1,3-benzothiazol-2-yl]glycinamide], the IC50 in test [1] lay within 50 to 500 nM; in test [2] it was 50 to 500 nM; in test [3] it was 500 to 5000 nM.

Turning to `O=C(CN1CCN(S(=O)(=O)CCc2cccc3ccccc23)CC1)Nc1ccccn1` [Entry 41, 2-{4-[(2-naphthalen-1-ylethyl)sulfonyl]piperazin-1-yl)-N-pyridin-2-ylacetamide], the figures for the IC50 in test [1], in test [2] and in test [3] were below 50 nM, below 50 nM and 50 to 500 nM, respectively.

In the case of `O=C(NCC1COc2ccccc2O1)c1ccc2c(c1)NC(=O)c1ccccc1N2` (stereo not drawn) [Entry 42, N-(2,3-dihydro-1,4-benzodioxin-2-ylmethyl)-11-oxo-10,11-dihydro-5H-dibenzo[b,e][1,4]diazepine-8-carboxamide], the IC50 in test [1] is 50 to 500 nM; in test [2], below 50 nM; in test [3] it was 50 to 500 nM.

For the compound `O=C(CNC(=O)c1ccc(-c2ccccc2)cc1)NC1CCCc2ccccc21` (stereo not drawn) [Entry 43, N-[2-oxo-2-(1,2,3,4-tetrahydronaphthalen-1-ylamino)ethyl]biphenyl-4-carboxamide], the IC50 in test [1], in test [2] and in test [3] was below 50 nM in each case.

`O=C(CNC(=O)c1ccc2ccccc2c1)NC1CCCc2ccccc21` (stereo not drawn) [Entry 44, N-[2-oxo-2-(1,2,3,4-tetrahydronaphthalen-1-ylamino)ethyl]naphthalene-2-carboxamide]: the IC50 in test [1] was 500 to 5000 nM; in test [2], 500 to 5000 nM; in test [3], above 5000 nM.

As for `O=C(CNC(=O)c1ccc(OC(F)(F)F)cc1)NC1CCCc2ccccc21` (stereo not drawn) [Entry 45, N-[2-oxo-2-(1,2,3,4-tetrahydronaphthalen-1-ylamino)ethyl]-4-[(trifluoromethyl)oxy]benzamide], the IC50 in test [1] was in the range of 500 to 5000 nM; in test [2], 50 to 500 nM; in test [3], 500 to 5000 nM.

`O=C(CNC(=O)c1cnc2ccccc2c1)NC1CCCc2ccccc21` (stereo not drawn) [Entry 46, N-[2-oxo-2-(1,2,3,4-tetrahydronaphthalen-1-ylamino)ethyl]quinoline-3-carboxamide]: the IC50 in test [1], in test [2] and in test [3] was above 5000 nM in each case.

On to `O=C(CNC(=O)Nc1cc(C(F)(F)F)cc(C(F)(F)F)c1)NC1CCCc2ccccc21` (stereo not drawn) [Entry 47, N˜2˜-({[3,5-bis(trifluoromethyl)phenyl]amino}carbonyl)-N-(1,2,3,4-tetrahydronaphthalen-1-yl)glycinamide], for which the IC50 in test [1], in test [2] and in test [3] was above 5000 nM throughout.

Regarding `CCc1cccc(NC(=O)NCC(=O)NC2CCCc3ccccc32)c1` (stereo not drawn) [Entry 48, N˜2˜-{[(3-ethylphenyl)amino]carbonyl}-N-(1,2,3,4-tetrahydronaphthalen-1-yl)glycinamide], the IC50 in test [1], in test [2] and in test [3] was above 5000 nM throughout.

On to `O=C(CNC(=O)c1ccc(Oc2ccccc2)cc1)NC1CCCc2ccccc21` (stereo not drawn) [Entry 49, N-[2-oxo-2-(1,2,3,4-tetrahydronaphthalen-1-ylamino)ethyl]-4-(phenyloxy)benzamide], for which the IC50 in test [1], in test [2] and in test [3] was 50 to 500 nM throughout.

Turning to `O=C(CNC(=O)c1ccc(C2CCCCC2)cc1)NC1CCCc2ccccc21` (stereo not drawn) [Entry 50, 4-cyclohexyl-N-[2-oxo-2-(1,2,3,4-tetrahydronaphthalen-1-ylamino)ethyl]benzamide], the IC50 in test [1], in test [2] and in test [3] was 50 to 500 nM throughout.

For the compound `O=C(CNC(=O)c1ccc(OCc2ccccc2)cc1)NC1CCCc2ccccc21` (stereo not drawn) [Entry 51, N-[2-oxo-2-(1,2,3,4-tetrahydronaphthalen-1-ylamino)ethyl]-4-[(phenylmethyl)oxy]benzamide], the IC50 was below 50 nM in test [1], below 50 nM in test [2] and 50 to 500 nM in test [3].

Turning to `CCc1ccc(-c2ccc(C(=O)NCC(=O)NCc3ccccc3)cc2)cc1` [Entry 52, 4-ethyl-N-{2-oxo-2-[(phenylmethyl)amino]ethyl}biphenyl-4-carboxamide], the IC50 in test [1], in test [2] and in test [3] was above 5000 nM each time.

On to `CCc1ccc(-c2ccc(C(=O)NCC(=O)NC3CCCCC3)cc2)cc1` [Entry 53, N-[2-(cyclohexylamino)-2-oxoethyl]-4′-ethylbiphenyl-4-carboxamide], for which the IC50 in test [1], in test [2] and in test [3] was above 5000 nM throughout.

Consider `CCc1ccc(-c2ccc(C(=O)NCC(=O)NCc3ccc(Cl)c(Cl)c3)cc2)cc1` [Entry 54, N-(2-{[(3,4-dichlorophenyl)methyl]amino}-2-oxoethyl)-4′-ethylbiphenyl-4-carboxamide], for which the IC50 in test [1], in test [2] and in test [3] was above 5000 nM each time.

For `O=C(CNC(=O)C(NC(=O)C(c1ccccc1)C1CCCC1)c1cccnc1)NC1CCCc2ccccc21` (stereo not drawn) [Entry 55, N˜2˜-[{[cyclopentyl(phenyl)acetyl]amino}(pyridin-3-yl)acetyt]-N-(1,2,3,4-tetrahydronaphthalen-1-yl)glycinamide], the IC50 in test [1], in test [2] and in test [3] was above 5000 nM throughout.
